Measurements: patent publication US5759836A, “Osteoarthritis-associated inducable isoform of nitric oxide synthetase” (priority 1995, dated 1998)
“And” between values parts separate entries of the source, which are not always exact repeats. Identical values can stand only once. “Also recorded” adds a separate entry of the source.

How the values were obtained:
NF-κB = conditions: cited from earlier work
iNOS [1] = assay: Radiolabelling of iNOS by acetyl-labelled aspirin in RAW 264.7 cells, SDS-PAGE; format: biochemical, murine; conditions: radiolabelled aspirin, 30 minutes
Procedure: Unstimulated and LPS stimulated murine macrophage (RAW 264.7) cells were incubated with radiolabelled aspirin (acetyl group labelled) as described by Lecomte et al. (J. Biol. Chem. 269:13207-13215, 1994). After 30 minutes, the extracts were run on an SDS-PAGE gel and analyzed by phosphoimager. […] The intensity of label (^14 C) is increased, where iNOS synthesis was induced by LPS.
However, the possibility that inhibition of iNOS catalytic activity may be due to acetylation of cofactors/precursors of iNOS has not been ruled out.

iNOS [2] = assay: iNOS expression in stimulated rat chondrosarcomas; format: cell-based
Procedure: NSAIDs were tested in: (FIG. 5A) rat chondrosarcomas stimulated with LPS, and (FIG. 5B) unstimulated OA cartilage (n=3).

COX = conditions: cited from earlier work
OA-NOS [3] = assay: Sensitivity of OA-NOS to agents (Table 3 comparison)
iNOS [4] = assay: Specific activity of iNOS in cell-free extracts of RAW 264.7 cells exposed to drug during LPS induction; format: cell-based, murine
Procedure: Assays for iNOS in Cell-Free Extracts. […] The reaction mixture for iNOS assay (in cell-free extracts) consists of Tris […] (pH 7.8); BSA 1 mg/ml; DTT 1 mM; CaCl2, 2 mM; FAD 10 μM; BH4 10 μM; L-arginine 30 μM; NADPH 1 mM. The assay mixture for cNOS consists of Tris 50 mM (pH 7.8); L-arginine 50 μM; calmodulin 10 μg/ml; BH4 10 μM; CaCl2 2 mM; NADPH 100 μM. RAW 264.7 cells were induced with LPS in the presence and absence of NSAIDs for 16-18 h. […] Cells were re-pelleted at 4° C. and resuspended in Tris buffer (10 mM, pH 7.4) containing 1 mg/ml each chymostatin, antipain, leupeptin and pepstatin, 1 mM DTT and 1 mM PMSF. Cells were lysed in a Polytron PT 1200 homogenizer (Kinematica AG, Switzerland) after 3 cycles of rapid freeze-thawing. The lysate was centrifuged at 16,000 rpm for 60 min at 4° C., and the supernatants were used as cell-free extracts. […] After 20 min the assays were terminated by heating the reaction mixture at 90° C. for 5 min. The precipitates were removed by centrifuging at 15,000 rpm for 20 min. Ten microliters (≈50,000 cpm) of the supernatant was spotted on activated Avicel TLC plates (Analtech, Newark, Del.). The TLC plates were developed in a solvent system consisting of ethanol:water:ammonia (80:16:4). Quantitation of the spot for L-[^3 3H]-citrulline was performed by a Bioscan System 200 Imaging Scanner. A phosphoimager can also be used for such quantification.
(§1) The specific activity of iNOS was determined in cellfre
(§2) extracts at a given time period as described. The nitrite and specific

OA-NOS [5] = assay: Nitrite release by OA-affected articular cartilage, ex vivo organ culture; format: cell-based, human
iNOS [6] = assay: In vitro iNOS catalytic activity in cell-free extracts preincubated with drug (L-[3H]-arginine to L-[3H]-citrulline); format: biochemical, murine; conditions: 20 min preincubation
COX-2 = molecular target: T1, COX-2 (Mus musculus, UniProt Q05769); format: cell-based, murine; conditions: 3 mM
T1 construct: Cells were incubated with LPS (1 μg/ml) for 16 h to induce COX-2; endogenous in cells; host or cells: RAW 264.7 murine macrophages, LPS-induced
T1 sequence (Q05769 18-604): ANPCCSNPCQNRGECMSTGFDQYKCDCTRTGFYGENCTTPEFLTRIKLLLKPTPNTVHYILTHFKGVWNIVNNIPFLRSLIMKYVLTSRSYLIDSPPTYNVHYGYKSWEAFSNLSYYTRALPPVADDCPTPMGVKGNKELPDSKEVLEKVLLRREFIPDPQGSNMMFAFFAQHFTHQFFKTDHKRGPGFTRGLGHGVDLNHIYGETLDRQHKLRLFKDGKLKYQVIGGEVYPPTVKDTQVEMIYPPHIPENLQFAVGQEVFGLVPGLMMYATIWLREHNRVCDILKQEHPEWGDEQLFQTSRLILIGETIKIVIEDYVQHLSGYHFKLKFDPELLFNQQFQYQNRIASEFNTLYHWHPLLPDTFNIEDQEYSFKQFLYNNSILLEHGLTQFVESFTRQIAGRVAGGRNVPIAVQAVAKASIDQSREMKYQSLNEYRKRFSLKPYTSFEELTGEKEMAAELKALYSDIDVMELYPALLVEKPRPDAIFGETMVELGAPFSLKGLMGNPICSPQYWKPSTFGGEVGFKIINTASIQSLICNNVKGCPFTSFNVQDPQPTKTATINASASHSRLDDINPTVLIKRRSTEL

iNOS [7] = assay: Nitrite accumulation in LPS-stimulated RAW 264.7 murine macrophages (Griess method); format: cell-based; conditions: for further inhibition of nitrite accumulation above that observed at 3 mM: suprapharmacological
Procedure: Effects of NSAIDs on Nitrite Accumulation. […] The expression and activity of iNOS were monitored by estimation of the stable end-product: nitrites.
concentrations of NSAIDs for 2 h followed by addition of 100 ng/ml of LPS
After 16-18 h of incubation, the medium was used to estimate the
accumulation of nitrite by the Greiss method (Green et al., Anal Biochem.
as §1, §2
activity data are representative of mean ± SD value, as determined by
student t test, for 10 and 4 independent experiments, respectively. The p
values described are compared with LPSstimulated cells. […]

CC(=O)Oc1ccccc1C(=O)O [Aspirin, aspirin]
activation of NF-κB (NF-κB; 5-20 mM, suprapharmacological): interfere in the activation of NF-κB | NF-κB-dependent transcription (NF-κB; aspirin 3 mM, sodium salicylate 5 mM, luciferase reporter): inhibit NF-κB-dependent transcription | NF-κB activation, gel shift assays (NF-κB; same concentrations (aspirin 3 mM; sodium salicylate 5 mM)): no significant effect on NF-κB activation | acetylation of iNOS (iNOS [1]): shows acetylation of iNOS | inhibition of iNOS expression in rat chondrosarcomas (iNOS [2]; 72 h, added 1 h prior to cytokines): ~ 57% | effect on iNOS in rat chondrosarcomas (iNOS [2]; LPS/cytokine-stimulated, L-NMMA 500 μM, indomethacin 20 μM): significant inhibition of iNOS | COX inhibition (COX): an effective inhibitor of COX | cyclooxygenase and peroxidase activity of COX (COX): inactivates the cyclooxygenase and not the peroxidase activity | sensitivity of OA-NOS (OA-NOS [3]): blocked; also recorded: shows sensitivity | Specific activity of iNOS (iNOS [4]; 1 mM): 271.7 ± 17.2 pmol/min/mg protein | Specific activity of iNOS (iNOS [4]; 2 mM): 231.3 ± 29.8 pmol/min/mg protein | Specific activity of iNOS (iNOS [4]; 3 mM): 162.3 ± 25.9 pmol/min/mg protein | Specific activity, % inhibition (iNOS [4]; 3 mM, cell-free extracts, 16 h): 47% | inhibition at 3000 µM (iNOS [4]; Mus musculus, RAW264.7, 16 h, read-out: Specific activity, % inhibition, 3 mM, cell-free extracts, 16 h): 48% | IC50 (iNOS [4]; Mus musculus, RAW264.7, read-out: IC50, specific enzyme activity of iNOS): 3000 µM | inhibition at 1000 µM (iNOS [4]; Mus musculus, RAW264.7, read-out: Specific activity, % inhibition, 1 mM): 12% | inhibition at 2000 µM (iNOS [4]; Mus musculus, RAW264.7, read-out: Specific activity, % inhibition, 2 mM): 25% | effect on nitrite accumulation / NOS expression in OA cartilage (OA-NOS [5]): blocked iNOS expression in OA cartilage | rank order of inhibition of spontaneous nitrite accumulation (OA-NOS [5]): aspirin>indomethacin>sodium salicylate | inhibition at 2000 µM (OA-NOS [5]; 2 mM, human osteoarthritic cartilage ex vivo, read-out: suppression of accumulation of nitrites): ≥ 50% | inhibition of iNOS catalytic activity in cell-free extracts (iNOS [6]; 0.1 mM): 10-12% | inhibition of iNOS catalytic activity in cell-free extracts (specific activity in in vitro assay) (iNOS [6]; 1 mM): ~ 45% and 45-68% | % inhibition of COX-2 specific activity (COX-2): > 75% | Nitrite released, Nitrite (iNOS [7]; 1 mM, LPS 100 ng/ml, 16-18 h): 26.6 ± 4.3 µM | Nitrite released, Nitrite (iNOS [7]; 2 mM, LPS 100 ng/ml, 16-18 h): 22.9 ± 5.3 µM | Nitrite released, Nitrite (iNOS [7]; 3 mM, LPS 100 ng/ml, 16-18 h): 20.3 ± 3.9 µM | further inhibition of nitrite accumulation above that observed at 3 mM (iNOS [7]; 5 mM): 50% | further inhibition of nitrite accumulation above that observed at 3 mM (iNOS [7]; 10 mM): 80% | inhibition at 1000 µM (iNOS [7]; Mus musculus, RAW264.7, read-out: Nitrite released, % inhibition, 1 mM, LPS 100 ng/ml, 16-18 h): 10% | inhibition at 2000 µM (iNOS [7]; Mus musculus, RAW264.7, read-out: Nitrite released, % inhibition, 2 mM, LPS-stimulated, 16-18 h): 22% | inhibition at 3000 µM (iNOS [7]; Mus musculus, RAW264.7, read-out: Nitrite released, % inhibition, 3 mM, LPS 100 ng/ml, 16-18 h): 32%
